Series [1] concerns human skin fibroblasts containing the human elastin promoter linked to a luciferase reporter gene construct. The series can be described thus: Neutral Red Cytotoxicity/Phototoxicity Assay. As to the method: Immortalized human skin fibroblasts containing the human elastin promoter linked to a luciferase reporter gene construct were seeded in 96-well plates at a density of 7,500 cells per well (doubling time ˜30 hours). Cells were grown in 75 cm^2 tissue culture flasks in MEM (without phenol red) supplemented with 10% FBS, 25 mM HEPES, 2 mM l-glutamine, 1% nonessential amino acids, 50 μg/mL Gentamycin, and 5 μg/mL Zeocin. Cell cultures were incubated in a 37° C. incubator (containing 5% CO2) when not being manipulated or irradiated. Cell cultures were washed with Phosphate Buffered Saline (PBS) with Ca^++ and Mg^++ when media or compounds were removed and before ultraviolet radiation (UVR).
Gluconolactone was prepared in PBS. Concentrations of 0.5, 1.0, 2.5, 5.0, 7.5, 10.0, 12.5, and 25% (w/v) were prepared and adjusted to a pH of 7.2. Gluconolactone was incubated 15 minutes prior to and in contact with cell cultures during UV-irradiation.
4-Hydroxy-tempo (tempol) was prepared in PBS. Concentrations of tempol of 10, 25, 50, 62.5, 100, 125, 250, and 500 mM were prepared and adjusted to a pH of 7.2. Tempol was incubated 15 minutes prior to and in contact with cell cultures during UV-irradiation.
Cell cultures were UV-irradiated with Westinghouse 40-Watt fluorescent sunlamps (FS-40 lamps) with doses of either 2 or 5 mJ/cm^2, based on a PMA2100 radiometer (Solar light Company, Philadelphia, Pa.) equipped with a PMA2101 erythema weighted detector.
Fifteen hours after UV-irradiation with the FS-40 lamps, cell cultures were washed with PBS and Neutral Red Medium (Neutral Red dye+supplemented MEM) was added for a 3 hours (in 37° C. incubators). After the incubation period, cells are washed with PBS and the Neutral Red Desorb solution (50% Ethanol, 49% distilled water, 1% Glacial Acetic Acid) was added. Plates are shaken for 10 minutes at 500 rpm and then the absorption was read at 540 nm using THERMOmax plate reader and SOFTmax PRO software.

The subject of series [2] is human elastin promoter linked to a luciferase reporter gene construct in human skin fibroblasts. The series can be described thus: human elastin promoter/luciferase assay (UV-induced promoter induction). Format: cell-based. As to the method:
Thus, gluconolactone protects against UV-induced gene induction in cells containing the human elastin promoter/luciferase construct. […] The ED50 for cell cultures with tempol but not receiving any ultraviolet radiaiton was approximately 100 mM.
Gluconolactone was prepared in PBS.
4-Hydroxy-tempo (tempol) was prepared in PBS.

Each structure is given as a SMILES string.

`O=C1O[C@H](CO)[C@@H](O)[C@H](O)[C@H]1O` [Glucolactone, Gluconolactone]: the phototoxicity or cytotoxicity entry in series [1] is listed as “did not demonstrate significant phototoxicity or cytotoxicity”. Moreover, the ED50 for phototoxicity entry in series [1] (human, pH 7.2) is reported as “approximately 102 g/L”. For the same molecule, in series [2] (human elastin promoter/luciferase fibroblasts, UV-irradiated), the “protection against UV-induced promoter induction” value is “approximately 50%”.

As to `CC1(C)CC(O)CC(C)(C)N1[O]` [tempol, 4-Hydroxy-tempo], the protection against toxicity result is “over 50%” in series [1] (neutral red assay, increasing ultraviolet doses) and “over 50%” in series [2] (human elastin promoter/luciferase assay, increasing ultraviolet doses). Besides, the “ED50 for cell cultures” value in series [1] (not receiving any ultraviolet radiation) is “approximately 100 mM”; in series [1] (ultraviolet radiation dose 2 mJ/cm^2) it was “approximately 150 mM”; in series [1] (ultraviolet radiation dose 5 mJ/cm^2), ~250 mM.

The values above are taken from patent US20060058388A1, “Methods for treating ocular diseases via introxide and or polyhydroxy acid containing compounds” (priority 2003, published 2006).
